Source: patent publication US20240091214A1, “LONAFARNIB FOR USE IN THE TREATMENT OF VIRAL INFECTIONS” (TWINCORE ZENTRUM FÜR EXPERIMENTELLE UND KLINISCHE …, priority 2021, published 2024)
pIC50: −log10 of the molar value. Like-named read-outs stand apart in the source and are kept apart here.

Tests used:
[1] = system: HRSV virus population with resistance to a fusion inhibitor (mutations within the F protein); experiment: Infection assay with HRSV population resistant to an HRSV fusion inhibitor, intracellular FACS staining; type: cell-based, human respiratory syncytial virus (HRSV); settings: fusion inhibitor adapted virus compared with DMSO adapted virus (FIG. 6)
Description: The most significant reduction of infected cells is shown in the DMSO adapted virus population by administration of lonafarnib. Dark grey: DMSO adapted virus; light grey: fusion inhibitor adapted virus.
Further, the efficacy of lonafarnib on HRSV virus population that had previously developed resistance to an HRSV fusion inhibitor was investigated. The effectiveness of HRSV infection (number of infected cells) was determined by intracellular FACS staining. […] The HRSV virus population with resistance to a fusion inhibitor was also less susceptible to inhibition by lonafarnib.

HRSV H01 ON1 isolate = experiment: Infection assay with HRSV H01 ON1 isolate, intracellular FACS staining against a virus own protein; type: cell-based, human respiratory syncytial virus (HRSV)
Description: Both graphs show data from analysing the viral infection efficiency by intracellular flow cytometry staining against a virus own protein. […] MFI: mean fluorescence intensity
Another infection assay was carried out with the HRSV H01 ON1 isolate. The analysis/quantification of the viral infection efficiency was carried out by intracellular FACS staining against a virus own protein. […] The amount of viral proteins in the infected cells was […] by the administration of lonafarnib.

[2] = cited from earlier work
[3] = animals, formulated in crystalline forms; cited from earlier work
HRSV = HRSV infection of differentiated BCi-NS1.1 air-liquid-interface cultures, viral load by qRT-PCR; type: cell-based, human respiratory syncytial virus (HRSV); settings: differentiated human airway epithelial cells (BCi-NS1.1), HBSS rinsing fluid and harvested cells, different doses and time points (FIG. 7)
Excerpt: Shown are viral loads measured by qRT-PCR after HRSV infection in differentiated BCi-NS1.1 cells and treatment with lonafanib at different doses. right: viral load in HBSS rinsing fluid at different time points after infection. left: viral load of harvested cells, also at different time points after infection.
Then, the antiviral effect of lonafarnib against HRSV was shown in differentiated human airway epithelial cells. Therefore, BCi NS1.1 cells were differentiated and used in so-called “air-liquid-interface” cultures to form a pseudo-stratified lung epithelium. The cells were then infected with HRSV and treated with lonafarnib at different concentrations. The compounds were added to the medium from the basolateral pole of the cell (“liquid interface”, homologous to the blood stream) as well as administered apically (homologous to local treatment via inhalation). At different time points post infection, the cell surface (“air interface”, apical side of the cell culture, homologous to the lumen of the lung) was rinsed with HBSS to remove released viruses from the cell surface. The viral load in the HBSS rinsing fluid was determined by qRT-PCR. Also, at each time point cells were lysed and the virus load in the cell extract was determined by qRT-PCR. (FIG. 7)

HRSV-B virus = experiment: HRSV-B infection assay, number of infected cells; type: cell-based; settings: % compared to DMSO control (FIG. 9)
Excerpt: However, […].

[4] = system: HRSV luciferase reporter virus; experiment: HRSV luciferase reporter virus infection assay (first and second round of infection); type: cell-based, human respiratory syncytial virus (HRSV); settings: for pIC50: human respiratory syncytial virus, 24 h
Excerpt: The dose-response relationship of lonafarnib to the HRSV reporter virus is shown on the right. Below are the IC50 and IC90 values of the first round of infection and the second round of infection, respectively, and the 50% cytotoxic concentration of lonafarnib (CC50).
The chemical structure of the farneslytransferase inhibitors lonafarnib and tipifarnib is shown above. The dose-response relationship of these agents against the HRSV luciferase reporter virus is shown below.
Efficiency of HRSV infection-inhibition by lonafarnib was investigated by a series of infection assays. In the first round of infection, the effect of lonafarnib on the virus' cell entry, which includes RNA transcription, translation and replication up to 24 hours after infection, was investigated. In the second round of infection, the cell culture supernatant was harvested and transferred to naive cells at 24 h after primary infection. In these cells, again 24 h later, the infection efficiency was determined using the luciferase reporter. In this way, the efficiency was analyzed over a longer period of time, including the spread of the virus and the re-infection of cells. The IC50 values were determined at 0.02 μM (round 1) and 0.004 μM (round 2). (FIG. 2)
In a further trial, the effect of lonafarnib compared to the farnesyltransferase inhibitor tipifarnib on HRSV-infected cell culture was then analyzed and compared.

[5] = system: clinical HRSV isolate HRSV H01 ON1; experiment: Plaque reduction test with clinical HRSV isolate; type: cell-based, human respiratory syncytial virus (HRSV); settings: clinical HRSV H01 ON1 isolate (FIG. 4)
Description: The respective concentrations of lonafarnib, tipifarnib and DMSO (control; final concentration 1%) administered to the cells are indicated on the respective well.
To confirm the antiviral effect of lonafarnib, an infection assay was performed with the clinical HRSV isolate HRSV H01 ON1. The infection efficiency was assessed in the plaque reduction test, i.e. independently of an indirect reporter gene measurement. […] (FIG. 4)

[6] = system: Hepatitis Delta Virus (HDV); experiment: Production of infectious Hepatitis Delta Virus in transfected Huh7-hNTCP cells; type: cell-based; settings: increasing concentrations (FIG. 8)
Description: 16 h later medium was exchanged and the cells were then cultured in absence or presence of 1% DMSO or increasing concentrations of lonafarnib or tipifarnib; (A) 10 days post transfection, translation of the HDV viral genome in the cells was confirmed by immunofluorescence and percentage of positive cells was calculated; (B) production of infectious progeny HDV was assessed by incubating serial dilutions of their supernatants on naïve Huh7-hNTCP, followed by staining for the HD-Ag—dashed lines indicates the detection threshold of the assay.

NC(=O)N1CCC(CC(=O)N2CCC([C@H]3c4ncc(Br)cc4CCc4cc(Cl)cc(Br)c43)CC2)CC1 [lonafarnib]
activity against fusion inhibitor-resistant HRSV population (number of infected cells) [1]: reduced activity
number of infected cells (HRSV H01 ON1 isolate; intracellular FACS staining (FIG. 5 left)): reduced the number of infected cells in a dose-dependent manner
amount of viral proteins in the infected cells (MFI) (HRSV H01 ON1 isolate; intracellular FACS staining (FIG. 5 right)): not reduced
stability in solution ([2]; acidic or basic conditions): will hydrolyze
water solubility [2]: poorly water soluble
stability in solution ([2]; neutral pH): stable at neutral pH
stability in the solid state ([2]; solid state, thermal): thermally stable
bioavailability [3]: low and variable
inhibition of HRSV infection (viral load by qRT-PCR) (HRSV): inhibits HRSV infection
inhibition of HRSV-B infection (number of infected cells) (HRSV-B virus): selectively and efficiently inhibits the number of infected cells
suppression of HRSV infection ([4]; HRSV-infected cell culture, dose-response, comparison of lonafarnib and tipifarnib (FIG. 3)): highly effective
pIC50 ([4]; read-out: IC50, first round of infection): 7.70
pIC50 ([4]; read-out: IC50, second round of infection): 8.40
plaque formation (plaque size and number) [5]: reduced plaque size and number in a dose-dependent manner
inhibition of Hepatitis Delta infections [6]: equally inhibit Hepatitis Delta infections
